Results from patent US4425360A, “Pharmacologically active novel O-substituted pyruvic acid oximes” (Boehringer Mannheim GmbH, priority 1980, dated 1984).

Columns and labels:
[1] = tested on: blood-glucose concentration; assay: Threshold dose of blood-glucose-lowering activity in fasting guinea pigs (i.p.); assay type: in vivo, guinea pig; conditions: Cavia porcellus, ip
Method: 1. Test procedure for determination of threshold dose
Fasting guinea pigs were used as experimental models to determine the threshold dose of the blood-glucose-lowering activity of the substances to be investigated. Food was withheld from the animals used in the investigations for 16 hours prior to the start of the tests. The animals remained without food for the entire testing period but had free access to drinking water.
The substances were administered intraperitoneally as a solution of the potassium salt at pH 7.4.
A parallel control group was given an 0.9% NaCl solution.
The drawing of blood for determination of the glucose concentrations was effected immediately prior to administration of the substances and at one-hour intervals up to the fourth hour after the administration of the substances. To this end, an ear vein was carefully punctured with a No. 18 cannula, and the drops of blood issuing were picked up with a 10 μl capillary.
The blood-glucose concentration was determined in the hemolyzate by the specific hexokinase method. To this end, the 10 μl blood sample was pipetted into a stabilizer solution containing digitonin as hemolysis accelerator and maleinimide as […]. Following this, an aliquot was taken from the hemolyzate so obtained and determined by the hexokinase method on an LKB 8600 (made by LKB, Bromma, Sweden).
The dose which with the specified number of test animals per dose group (N=4) was just large enough to produce a significant lowering of fasting glycemia (p>0.05) was adopted as threshold dose.

glucose resorption = assay: Resorption-inhibiting activity: oral glucose loading in fasting guinea pigs; assay type: in vivo, guinea pig; conditions: Cavia porcellus, ip, 1 g glucose p.o., AUC difference vs control; for inhibition in vivo at 40 mg/kg: dose 40 mg/kg i.p.; for inhibition in vivo at 25 mg/kg: dose 25 mg/kg i.p.; for inhibition in vivo at 20 mg/kg: dose 20 mg/kg i.p.
Method: 2. Test procedure for determination of resorption-inhibiting activity
To determine the effect on glucose resorption, oral glucose loading was effected. To this end, the substance to be tested was administered intraperitoneally as potassium salt, as described, to a group of ten fasting guinea pigs. At the same time, 1 g glucose was orally administered to the animals as a 20% solution by means of an esophageal bougie.
After a preliminary value had been established, blood was taken from the animals at close intervals (20 min. to 200 min.) for determination of the glucose concentrations, as described.
A parallel control group was also given 1 g glucose p. o., and intraperitoneally a corresponding amount of 0.9% NaCl solution.
The blood-glucose concentration was determined in the hemolyzate by the hexokinase method, as described.
With regard to glucose resorption, the area under the concentration/time curve, calculated by means of the empirical trapeze formula, served as quantity to be measured. The difference in the area between the control and test groups, expressed in percent, was used as a measure for the inhibition of glucose resorption.

[2] = potassium salt pH 7.4, N=4 per dose group, smallest dose significantly lowering fasting glycemia
[3] = potassium salt pH 7.4, N=4, remark printed: weak

Compound | minimal effective dose [1, 2] [mg/kg] | inhibition in vivo at 40 mg/kg (glucose resorption) [%] | further results
CC(=NOCC=Cc1ccc(F)cc1)C(=O)O [Example 5, 2-(4-Fluorocinnamyloxyimino)-propionic acid] | 50 | 3 | 
O=C(O)C=NOCC=Cc1ccccc1 [Example 10, Cinnamyloxyiminoacetic acid] | > 50 |  | inhibition in vivo at 25 mg/kg (glucose resorption): 69%
CCC(=NOCC=Cc1ccccc1)C(=O)O [Example 10a, 2-cinnamyloxyiminobutyric acid] | 25 |  | inhibition in vivo at 20 mg/kg (glucose resorption): 0%
CC(=Cc1ccccc1)CON=C(C)C(=O)O [Example 3b, 2-(β-methylcinnamyloxyimino)-propionic acid] | 50 | 40 | 
CC(=NOCC#Cc1ccccc1)C(=O)O [Example 2d, 2-(3-phenyl-2-propynyloxyimino)-propionic acid] |  | 65 | minimal effective dose ([1]; potassium salt pH 7.4, N=4, remark printed: wk. indiv. animals): 25 mg/kg
CC(=NOCCCc1ccccc1)C(=O)[O-].[Na+] [Example 1b, sodium 2-(3-phenylpropyloxyimino)-propionate] | 25 to 50 |  | inhibition in vivo at 20 mg/kg (glucose resorption): 39%
CC(=NOCC=Cc1cc(Cl)ccc1C)C(=O)O [Example 5f, 2-(5-chloro-2-methylcinnamyloxyimino)-propionic acid] | 50 | 33 | 
CC(=NOCCOc1ccccc1)C(=O)[O-].[Na+] [Example 1c, sodium 2-(2-phenoxyethyloxyimino)-propionate] |  | 25 | minimal effective dose [1, 3]: 50 mg/kg
COc1cccc(C=CCON=C(C)C(=O)O)c1 [Example 5D, 2-(3-methoxycinnamyloxyimino)-propionic acid] | 25 |  | inhibition in vivo at 25 mg/kg (glucose resorption): 36%
CC(=NOCC=Cc1ccc(Cl)cc1)C(=O)O [Example 4b, 2-(4-chlorocinnamyloxyimino)-propionic acid] |  |  | minimal effective dose ([1]; potassium salt pH 7.4, N=4, remark printed: flat D-W curve): 25 to 50 mg/kg; inhibition in vivo at 20 mg/kg (glucose resorption): 10%
CC(=NOCCc1ccccc1)C(=O)O [Example 2a, 2-(2-phenylethyloxyimino)-propionic acid] | 75 | 33 | 
CC(=NOCC=Cc1ccccc1Cl)C(=O)O [Example 4a, 2-(2-chlorocinnamyloxyimino)-propionic acid] |  | 41 | minimal effective dose [1, 3]: 50 mg/kg
CC(=NOCC=Cc1ccccc1)C(=O)N1CCN(C)CC1 [Example 8, 4-[2-(Cinnamyloxyimino)-propionyl]-1-methylpiperazine] | > 50 | 44 | 
C=CCON=C(C)C(=O)O [Example 4c, 2-(allyloxyimino)-propionic acid] | > 50 | 37 | 
CC(=NOCC=Cc1cccc(Cl)c1)C(=O)O [Example 4, 2-(3-Chlorocinnamyloxyimino)-propionic acid] | 25 |  | inhibition in vivo at 20 mg/kg (glucose resorption): 55%
O=C(O)C(CF)=NOCC=Cc1ccccc1 [Example 9, 2-(Cinnamyloxyimino)-3-fluoropropionic acid] | 25 |  | inhibition in vivo at 20 mg/kg (glucose resorption): 26%
CC(=CCON=C(C)C(=O)O)c1ccccc1 [Example 3, 2-(γ-Methylcinnamyloxyimino)-propionic acid] | 50 |  | inhibition in vivo at 30 mg/kg (glucose resorption; dose 30 mg/kg i.p.): 0%
CC(=NOCC=Cc1ccccc1)C(=O)O [Example 3a, 2-cinnamyloxyiminopropionic acid] | 25 |  | inhibition in vivo at 10 mg/kg (glucose resorption; dose 10 mg/kg i.p.): 33%
CC(=NOCC=Cc1cccc(C(F)(F)F)c1)C(=O)O [Example 5a, 2-(3-trifluoromethylcinnamyloxyimino)-propionic acid] | 50 | 34 | 
